Test results from ChEMBL document CHEMBL1133295, “Towards enzyme activated antiprostatic agents” (Bioorg Med Chem Lett, 2000).

Key:
Type in all cases: functional, cell-based
Details in all cases: Homo sapiens
[1] = test system: HEK293; assay: The compound was evaluated for cytotoxicity by assessing 3H thymidine uptake in HEK293 cell line
[2] = test system: LNCaP; assay: The compound was evaluated for cytotoxicity by assessing 3H thymidine uptake in LNCaP cell line
[3] = test system: MCF7; assay: The compound was evaluated for cytotoxicity by assessing 3H thymidine uptake in MCF-7 cell line
[4] = test system: HEK293; assay: The compound was evaluated for cytotoxicity by assessing 3H thymidine uptake in HEK293 cell line in presence of PSA (1 ug)
[5] = test system: LNCaP; assay: The compound was evaluated for cytotoxicity by assessing 3H thymidine uptake in LNCaP cell line in presence of PSA (1 ug)

SMILES	IC50 [1]	IC50 [2]	IC50 [3]	IC50 [4]	IC50 [5]
CC(C)(C)OC(=O)N[C@@H](Cc1ccc(O)cc1)C(=O)Nc1ccc(COC(=O)N(CCO)CCO)cc1	> 600 µM	> 500 µM	> 900 µM		
N[C@@H](Cc1ccc(O)cc1)C(=O)Nc1ccc(COC(=O)N(CCCl)CCCl)cc1	176 µM	33 µM	> 900 µM	173 µM	34 µM
